In publication PMC10385850, “Modified Hederagenin Derivatives Demonstrate Ex Vivo Anthelmintic Activity against Fasciola hepatica” (Pharmaceutics, 2023):
Entries after “also recorded” stand apart in the source; their conditions may differ.

Key:
Format in all cases: cell-based, Fasciola hepatica
[1] = test system: wild strain adult F. hepatica; assay: Ex vivo motility assay on adult liver flukes (wild strain); conditions: 40 µM; for Effect on wild strain adult fluke motility, in words: 72 h; for Average motility of 4 parasites with 95% CI at 72 hour time point: wild strain adult flukes, score 1 good/normal to 6 no movement or dead
Protocol: Due to the high number of active molecules and a shortage of Italian strain adult liver flukes, the eleven hit compounds were screened for 72 h at 40 µM (in 0.4% DMSO) on wild strain adult F. hepatica (n = 4/condition) of unknown provenance (Table S3). The protocol for culturing and scoring (motility) the activity of these compounds was previously described (1—good/normal; 2—moderate; 3—resting (less than 10 s pulses of body and head), 4—apathetic (less than 2 s pulses of body and head), 5—paralysis and 6–no movement or dead worms). Six compounds were deemed active in these assays and were selected for further screening.

[2] = test system: F. hepatica newly excysted juveniles (NEJs), Italian strain; assay: Ex vivo screen against newly excysted juveniles (NEJs), phenotype and motility scoring; conditions: 10 µM; for Average motility of 25 NEJs with 95% CI, 24 hours / Average motility of 25 NEJs with 95% CI, 48 hours / Average motility of 25 NEJs with 95% CI, 72 hours: motility score 1 good/normal to 5 no movement; for Average phenotype of 25 NEJs with 95% CI, 24 hours / Average phenotype of 25 NEJs with 95% CI, 48 hours / Average phenotype of 25 NEJs with 95% CI, 72 hours: ultrastructure score 1 normal to 6 dead or dissolved; for Activity against NEJs (first screen), in words: 72 h co-culture
Protocol: […] The NEJs were excysted from metacercariae and assayed at 10 μM (in 0.1% DMSO) final concentration alongside negative (0.1% DMSO) and positive (10 μM TCBZ, in 0.1% DMSO) controls as previously described. The MC and IVL compound series were screened separately.
The motility (1—good/normal; 2—moderate; 3—low; 4—very little; 5—no movement) and phenotypic (ultrastructural changes) scores were noted according to a previously described scoring matrix (Figure S1 and Table S2).

[3] = test system: immature F. hepatica flukes (Italian strain); assay: Ex vivo motility assay on immature liver flukes (Italian strain), single concentration and dose response; conditions: 40 µM
Protocol: The six selected compounds (at 40 µM in 0.4% DMSO) were evaluated on immature flukes (n = 4/condition) at 24, 48 and 72 h (Table S4). The protocol for culturing and scoring (motility) of these life stages have been previously described. Due to restricted numbers of immature worms, a dose response assay was conducted only for MC042. Here, immature worms (n = 2/concentration tested) were screened against descending concentrations of MC042 (40 µM, 13.3 µM and 4.4 µM); motility scores were recorded at 24, 48 and 72 h (Table S5). The scoring pattern used is identical to that described for NEJs.

SMILES	Effect on wild strain adult fluke motility, in words [1]	Average motility of 4 parasites with 95% CI at 72 hour time point [1]	Average motility of 25 NEJs with 95% CI, 24 hours [2]	Average phenotype of 25 NEJs with 95% CI, 24 hours [2]	Average motility of 25 NEJs with 95% CI, 48 hours [2]	Average phenotype of 25 NEJs with 95% CI, 48 hours [2]	Average motility of 25 NEJs with 95% CI, 72 hours [2]	Average phenotype of 25 NEJs with 95% CI, 72 hours [2]	Activity against NEJs (first screen), in words [2]	Average motility of 4 parasites with 95% CI at 24 hour time point ([3]; 24 h, immature flukes, score 1 normal to 5 no movement or death)	Average motility of 4 parasites with 95% CI at 48 hour time point ([3]; 48 h, immature flukes, score 1 to 5)	Average motility of 4 parasites with 95% CI at 72 hour time point ([3]; 72 h, immature flukes, score 1 to 5)	Effect on immature fluke motility, in words ([3]; by 72 h)
CC(=O)OC[C@]12CCC(C)(C)CC1C1=CCC3[C@@]4(C)CC[C@H](O)[C@@](C)(CO)C4CC[C@@]3(C)[C@]1(C)CC2 (stereo partly drawn) [MC037, ((4aS,6aS,6bR,9R,10S,12aR)-10-Hydroxy-9-(hydroxymethyl)-2,2,6a,6b,9,12a-hexamethyl-1,3,4,5,6,6a, 6b,7,8,8a,9,10,11,12,12a,12b,13,14b-octadecahydropicen-4a(2H)-yl)methyl acetate]	less severe motility defects	3.25 (2;4.4)	5.00 (5.0;5.0)	6.00 (6.0;6.0)	5.00 (5.0;5.0)	6.00 (6.0;6.0)	5.00 (5.0;5.0)	6.00 (6.0;6.0)	maximal alterations to both phenotype/ultrastructure and motility				
CC(=O)OCC1(C)C(OC(C)=O)CCC2(C)C1CCC1(C)C2CC=C2C3CC(C)(C)CCC3(NC(=O)N3CCCC3)CCC21C (stereo not shown) [MC056]	less severe motility defects; also recorded: limited activity	4.25 (3.3;5.1)	5.00 (5.0;5.0)	6.00 (6.0;6.0)	5.00 (5.0;5.0)	6.00 (6.0;6.0)	5.00 (5.0;5.0)	6.00 (6.0;6.0)	maximal alterations to both phenotype/ultrastructure and motility				
CC(=O)OC[C@@]1(C)C2CC[C@]3(C)C(CC=C4C5CC(C)(C)CC[C@]5(NC(=O)N5CCCC5)CC[C@]43C)[C@@]2(C)CC[C@@H]1O (stereo partly drawn) [MC057, ((3S,4R,6aR,6bS,8aS,14bR)-3-Hydroxy-4,6a,6b,11,11,14b-hexamethyl-8a-(pyrrolidine-1-carbox-amido)-1,2,3,4,4a,5,6,6a,6b,7,8,8a,9,10,11,12,12a,14,14a, 14b-icosahydropicen-4-yl)-methyl acetate]	partial paralysis	5.00 (5.0;5.0)	5.00 (5.0;5.0)	6.00 (6.0;6.0)	5.00 (5.0;5.0)	6.00 (6.0;6.0)	5.00 (5.0;5.0)	6.00 (6.0;6.0)	maximal alterations to both phenotype/ultrastructure and motility	3.50 (2.5;4.4)	4.25 (3.3;5.1)	4.50 (3.5;5.4)	least active in this series
